Results: the CheMixHub viscosity set
“And” between values parts separate entries of the source, which are not always exact repeats. Equal values may be shown once.

C1COCCO1
Details	viscosity
293.15 K, 100 kPa	1.286 mPa·s and 1.221 mPa·s
293.15 K, 101 kPa	1.271 mPa·s
293.15 K, 101.3 kPa	1.297 mPa·s
295.1 K, 101.32 kPa	1.26 mPa·s
298.15 K, 100 kPa	1.122 mPa·s
298.15 K, 101 kPa	1.155 mPa·s
298.15 K, 101.33 kPa	1.321 mPa·s and 1.149 mPa·s
301.15 K, 101.32 kPa	1.116 mPa·s
302.15 K, 101 kPa	1.099 mPa·s
303.15 K, 100 kPa	1.034 mPa·s
304.15 K, 101.32 kPa	1.046 mPa·s
306.15 K, 101 kPa	1.029 mPa·s
307.15 K, 101.32 kPa	0.9913 mPa·s
308.15 K, 100 kPa	0.999 mPa·s
308.15 K, 101.33 kPa	1 mPa·s and 0.999 mPa·s and 0.969 mPa·s
309.15 K, 101 kPa	0.9815 mPa·s
310.15 K, 101.32 kPa	0.9402 mPa·s
311.15 K, 101 kPa	0.9497 mPa·s
313.1 K, 101 kPa	0.929 mPa·s and 0.929 mPa·s
313.15 K, 101.32 kPa	0.939 mPa·s and 0.8914 mPa·s
313.15 K, 101.33 kPa	0.9376 mPa·s
316.15 K, 101 kPa	0.8859 mPa·s
318.15 K, 101.33 kPa	0.8714 mPa·s and 0.901 mPa·s
320.15 K, 101 kPa	0.8276 mPa·s
323.1 K, 101 kPa	0.809 mPa·s and 0.809 mPa·s
323.15 K, 100 kPa	0.814 mPa·s
323.15 K, 101 kPa	0.8147 mPa·s and 0.819 mPa·s
323.15 K, 101.33 kPa	0.8121 mPa·s

CC(F)(F)Cl
101 kPa
Details	viscosity [mPa·s]
293.15 K	0.2489
293.35 K	0.2432
293.45 K	0.2381
313.15 K	0.2004
313.25 K	0.2015
313.35 K	0.2002

CCCCn1cc[n+](C)c1.O=S(=O)([N-]S(=O)(=O)C(F)(F)F)C(F)(F)F
Details	viscosity
293.15 K, 100 kPa	61.47 mPa·s
293.15 K, 101 kPa	64.6 mPa·s and 62.91 mPa·s and 65.11 mPa·s
293.15 K, 101.3 kPa	63.1 mPa·s
293.3 K, 100 kPa	62.66 mPa·s
293.61 K, 100 kPa	61.82 mPa·s
293.91 K, 100 kPa	60.98 mPa·s
294.21 K, 100 kPa	60.17 mPa·s
294.52 K, 100 kPa	59.36 mPa·s
294.82 K, 100 kPa	58.58 mPa·s
295.12 K, 100 kPa	57.8 mPa·s
295.42 K, 100 kPa	57.04 mPa·s
295.73 K, 100 kPa	56.29 mPa·s
296.03 K, 100 kPa	55.56 mPa·s
296.33 K, 100 kPa	54.84 mPa·s
296.64 K, 100 kPa	54.13 mPa·s
296.94 K, 100 kPa	53.43 mPa·s
297.24 K, 100 kPa	52.75 mPa·s
297.55 K, 100 kPa	52.07 mPa·s
297.85 K, 100 kPa	51.41 mPa·s
298 K, 100 kPa	49.74 mPa·s
298 K, 101 kPa	50.4 mPa·s
298.15 K, 101 kPa	50.29 mPa·s and 51.73 mPa·s and 45.3 mPa·s
298.15 K, 101.3 kPa	50.53 mPa·s
298.45 K, 100 kPa	50.12 mPa·s
298.76 K, 100 kPa	49.49 mPa·s
299.06 K, 100 kPa	48.87 mPa·s
299.36 K, 100 kPa	48.26 mPa·s
299.67 K, 100 kPa	47.66 mPa·s
299.97 K, 100 kPa	47.08 mPa·s
300.27 K, 100 kPa	46.5 mPa·s
300.58 K, 100 kPa	45.93 mPa·s
300.88 K, 100 kPa	45.37 mPa·s
301.18 K, 100 kPa	44.82 mPa·s
301.48 K, 100 kPa	44.27 mPa·s
301.79 K, 100 kPa	43.74 mPa·s
302.09 K, 100 kPa	43.22 mPa·s
302.39 K, 100 kPa	42.7 mPa·s
302.7 K, 100 kPa	42.19 mPa·s
303 K, 100 kPa	41.69 mPa·s
303.15 K, 100 kPa	40.54 mPa·s and 39.95 mPa·s
303.15 K, 101 kPa	40.77 mPa·s and 41.8 mPa·s
303.61 K, 100 kPa	40.71 mPa·s
303.91 K, 100 kPa	40.23 mPa·s
304.21 K, 100 kPa	39.76 mPa·s
304.52 K, 100 kPa	39.3 mPa·s
304.82 K, 100 kPa	38.85 mPa·s
305.12 K, 100 kPa	38.4 mPa·s
305.42 K, 100 kPa	37.96 mPa·s
305.73 K, 100 kPa	37.52 mPa·s
306.03 K, 100 kPa	37.09 mPa·s
306.33 K, 100 kPa	36.67 mPa·s
306.64 K, 100 kPa	36.25 mPa·s
306.94 K, 100 kPa	35.85 mPa·s
307.24 K, 100 kPa	35.44 mPa·s
307.55 K, 100 kPa	35.04 mPa·s
307.85 K, 100 kPa	34.65 mPa·s
308.15 K, 101 kPa	34.3 mPa·s
308.15 K, 101.3 kPa	33.95 mPa·s
308.76 K, 100 kPa	33.51 mPa·s
309.06 K, 100 kPa	33.14 mPa·s
309.36 K, 100 kPa	32.78 mPa·s
309.67 K, 100 kPa	32.42 mPa·s
309.97 K, 100 kPa	32.07 mPa·s
310.27 K, 100 kPa	31.72 mPa·s
310.58 K, 100 kPa	31.38 mPa·s
310.88 K, 100 kPa	31.04 mPa·s
311.18 K, 100 kPa	30.71 mPa·s
311.48 K, 100 kPa	30.38 mPa·s
311.79 K, 100 kPa	30.05 mPa·s
312.09 K, 100 kPa	29.73 mPa·s
312.39 K, 100 kPa	29.42 mPa·s
312.7 K, 100 kPa	29.11 mPa·s
313 K, 100 kPa	28.8 mPa·s
313.15 K, 100 kPa	28 mPa·s
313.15 K, 101 kPa	28.06 mPa·s
313.15 K, 101.3 kPa	28.39 mPa·s
313.2 K, 101.33 kPa	27.26 mPa·s
313.61 K, 100 kPa	28.2 mPa·s
313.91 K, 100 kPa	27.91 mPa·s
314.21 K, 100 kPa	27.62 mPa·s
314.52 K, 100 kPa	27.33 mPa·s
314.82 K, 100 kPa	27.05 mPa·s
315.12 K, 100 kPa	26.77 mPa·s
315.42 K, 100 kPa	26.49 mPa·s
315.73 K, 100 kPa	26.22 mPa·s
316.03 K, 100 kPa	25.95 mPa·s
316.33 K, 100 kPa	25.69 mPa·s
316.64 K, 100 kPa	25.43 mPa·s
316.94 K, 100 kPa	25.17 mPa·s
317.24 K, 100 kPa	24.92 mPa·s
317.55 K, 100 kPa	24.67 mPa·s
318.15 K, 100 kPa	23.75 mPa·s and 24.18 mPa·s
318.76 K, 100 kPa	23.7 mPa·s
319.06 K, 100 kPa	23.47 mPa·s
319.36 K, 100 kPa	23.23 mPa·s
319.67 K, 100 kPa	23 mPa·s
319.97 K, 100 kPa	22.78 mPa·s
320.27 K, 100 kPa	22.56 mPa·s
320.58 K, 100 kPa	22.34 mPa·s
320.88 K, 100 kPa	22.12 mPa·s
321.18 K, 100 kPa	21.9 mPa·s
321.48 K, 100 kPa	21.69 mPa·s
321.79 K, 100 kPa	21.48 mPa·s
322.09 K, 100 kPa	21.28 mPa·s
322.39 K, 100 kPa	21.07 mPa·s
